From patent US20240009213A1, “TREATMENT FOR VIRAL INFECTION” (priority 2020, published 2024)

How the values were obtained:
[1] = test system: influenza A/California/07/2009 (H1N1), influenza A/PR/8/1934 (H1N1), influenza A/Vietnam/1194/2004 (H5N1); test: microbe, parasite or virus in culture; format: cell-based, influenza A virus; conditions: for IC50: Influenza A virus, MDCK, 50 h
[2] = test system: influenza A/PuertoRico/1934 (H1N1); test: Protection of mice against lethal influenza H1N1 challenge; format: in vivo, BALB/c mice; conditions: 5×LD50 influenza A/PuertoRico/1934 (H1N1) day 0; 25 mg/kg orally once daily day 1 to day 7
SARS-CoV-2 [3] = format: cell-based
SARS-CoV-2 [4] = test: Protection of mice against lethal SARS-CoV-2 challenge; format: in vivo, F1 mice of BALB/c/C57BL6 mice; conditions: 5×LD50 SARS-CoV-2 day 0; 25 mg/kg orally once daily day 1 to day 7

SMILES	IC50 [1] [nM]	other results
CN1CCN(c2ccc(C(=O)Nc3n[nH]c4ccc(Cc5cc(F)cc(F)c5)cc34)c(NC3CCOCC3)c2)CC1 [entrectinib, N-[5-[(3,5-difluorophenyl)methyl]-1H-indazol-3-yl]-4-(4-methylpiperazin-1-yl)-2-(oxan-4-ylamino)benzamide]	1000 to 4000	–
C[C@@H](Oc1cc(-c2cnn(C3CCNCC3)c2)cnc1N)c1c(Cl)ccc(F)c1Cl [crizotinib, 3-[(1R)-1-(2,6-dichloro-3-fluorophenyl)ethoxy]-5-(1-piperidin-4-ylpyrazol-4-yl)pyridin-2-amine]	1000 to 4000	survival of mice [2]: 38%
CCc1cc2c(cc1N1CCC(N3CCOCC3)CC1)C(C)(C)c1[nH]c3cc(C#N)ccc3c1C2=O [alectinib, 9-ethyl-6,6-dimethyl-8-(4-morpholin-4-ylpiperidin-1-yl)-11-oxo-5H-benzo[b]carbazole-3-carbonitrile]	1000 to 4000	–
C[C@@H]1CN(C(=O)c2ccc(NC(=O)c3cc(O[C@H](C)c4c(Cl)ccc(F)c4Cl)c(N)nn3)cc2)C[C@H](C)N1 [ensartinib, 6-amino-5-[(1R)-1-(2,6-dichloro-3-fluorophenyl)ethoxy]-N-[4-[(3R,5S)-3,5-dimethylpiperazine-1-carbonyl]phenyl]pyridazine-3-carboxamide]	1000 to 4000	–
COc1cc(N2CCC(N3CCN(C)CC3)CC2)ccc1Nc1ncc(Cl)c(Nc2ccccc2P(C)(C)=O)n1 [brigatinib, 5-chloro-4-N-(2-dimethylphosphorylphenyl)-2-N-[2-methoxy-4-[4-(4-methylpiperazin-1-yl)piperidin-1-yl]phenyl]pyrimidine-2,4-diamine]	1000 to 4000	survival of mice [2]: 12.5%
C[C@H]1Oc2cc(cnc2N)-c2c(nn(C)c2C#N)CN(C)C(=O)c2ccc(F)cc21 [lorlatinib]	–	inhibition of SARS-CoV-2 (SARS-CoV-2 [3]): but not lorlatinib, inhibited SARS-CoV-2; virus assembly/secretion (viral OD, viral titres) [1]: viral titres remain high for all doses tested
Cc1cc(Nc2ncc(Cl)c(Nc3ccccc3S(=O)(=O)C(C)C)n2)c(OC(C)C)cc1C1CCNCC1 [ceritinib, 5-chloro-2-N-(5-methyl-4-piperidin-4-yl-2-propan-2-yloxyphenyl)-4-N-(2-propan-2-ylsulfonylphenyl)pyrimidine-2,4-diamine]	100 to 1000	survival of mice (SARS-CoV-2 [4]): 29%
